Reference: patent publication US7528138B2, “Pyrazolo[1,5-a]pyrimidines useful as inhibitors of protein kinases” (Vertex Pharmaceuticals Incorporated, priority 2004, dated 2009)

Columns and labels:
Type in all cases: biochemical
[1] = biological target: T1, Itk (Homo sapiens, UniProt Q08881); assay: ITK Inhibition Assay (Radiometric), radioactive-phosphate incorporation; conditions: enzyme inhibition data (Ki), Table 11; radiometric or UV assay not stated
T1 sequence (Q08881 1-620): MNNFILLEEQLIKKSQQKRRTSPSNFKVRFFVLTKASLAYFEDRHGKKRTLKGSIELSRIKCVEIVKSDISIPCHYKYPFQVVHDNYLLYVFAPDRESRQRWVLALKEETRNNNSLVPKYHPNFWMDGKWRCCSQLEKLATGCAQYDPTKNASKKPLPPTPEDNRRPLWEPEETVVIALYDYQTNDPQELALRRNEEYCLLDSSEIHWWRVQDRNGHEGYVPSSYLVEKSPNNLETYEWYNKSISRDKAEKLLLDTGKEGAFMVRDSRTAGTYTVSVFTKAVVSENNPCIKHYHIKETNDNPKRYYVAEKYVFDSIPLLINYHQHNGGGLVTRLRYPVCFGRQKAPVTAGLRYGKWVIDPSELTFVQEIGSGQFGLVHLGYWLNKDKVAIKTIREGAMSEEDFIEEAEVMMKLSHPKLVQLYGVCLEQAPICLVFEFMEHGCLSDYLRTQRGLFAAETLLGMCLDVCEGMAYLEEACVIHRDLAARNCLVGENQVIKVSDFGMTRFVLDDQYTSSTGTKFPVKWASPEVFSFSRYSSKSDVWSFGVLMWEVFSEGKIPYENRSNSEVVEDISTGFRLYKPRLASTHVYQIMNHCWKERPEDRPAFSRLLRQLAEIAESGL
Protocol: Assays are carried out in a mixture of 20 mM MOPS (pH 7.0), 10 mM MgCl2, 0.1% BSA and 1 mM DTT. Final substrate concentrations in the assay are 7.5 μM [γ-33P]ATP (400 mCi 33P ATP/mmol ATP, Amersham Pharmacia Biotech/Sigma Chemicals) and 3 μM peptide (SAM68 protein D332-443). Assays are carried out at 25° C. in the presence of 50 nM Itk. An assay stock buffer solution is prepared containing all of the reagents listed above, with the exception of ATP and the test compound of interest. 50 μL of the stock solution is placed in a 96 well plate followed by addition of 2 μL of DMSO stock containing serial dilutions of the test compound (typically starting from a final concentration of 50 μM with 2-fold serial dilutions) in duplicate (final DMSO concentration 2%). The plate is pre-incubated for 10 minutes at 25° C. and the reaction initiated by addition of 50 μL [γ-33P]ATP (final concentration 7.5 μM).
The reaction is stopped after 10 minutes by the addition of […] 0.2M phosphoric acid+0.01% TWEEN 20. A multiscreen phosphocellulose filter 96-well plate (Millipore, Cat no. MAPHN0B50) is pretreated with 100 μL 0.2M phosphoric acid +0.01% TWEEN 20 prior to the addition of […] of the stopped assay mixture. The plate is washed with 4×200 μL 0.2M phosphoric acid+0.01% TWEEN 20. After drying, 30 μL Optiphase ‘SuperMix’ liquid scintillation cocktail (Perkin Elmer) is added to the well prior to scintillation counting (1450 Microbeta Liquid Scintillation Counter, Wallac).
Ki(app) data are calculated from non-linear regression analysis of the initial rate data using the Prism software package (GraphPad Prism version 3.0cx for Macintosh, GraphPad Software, San Diego Calif., USA).

[2] = biological target: T2, JAK3 (Homo sapiens, UniProt P52333); assay: JAK3 Inhibition Assay, 33P incorporation; conditions: enzyme inhibition data (Ki), Table 11
T2 sequence (P52333 1-1124): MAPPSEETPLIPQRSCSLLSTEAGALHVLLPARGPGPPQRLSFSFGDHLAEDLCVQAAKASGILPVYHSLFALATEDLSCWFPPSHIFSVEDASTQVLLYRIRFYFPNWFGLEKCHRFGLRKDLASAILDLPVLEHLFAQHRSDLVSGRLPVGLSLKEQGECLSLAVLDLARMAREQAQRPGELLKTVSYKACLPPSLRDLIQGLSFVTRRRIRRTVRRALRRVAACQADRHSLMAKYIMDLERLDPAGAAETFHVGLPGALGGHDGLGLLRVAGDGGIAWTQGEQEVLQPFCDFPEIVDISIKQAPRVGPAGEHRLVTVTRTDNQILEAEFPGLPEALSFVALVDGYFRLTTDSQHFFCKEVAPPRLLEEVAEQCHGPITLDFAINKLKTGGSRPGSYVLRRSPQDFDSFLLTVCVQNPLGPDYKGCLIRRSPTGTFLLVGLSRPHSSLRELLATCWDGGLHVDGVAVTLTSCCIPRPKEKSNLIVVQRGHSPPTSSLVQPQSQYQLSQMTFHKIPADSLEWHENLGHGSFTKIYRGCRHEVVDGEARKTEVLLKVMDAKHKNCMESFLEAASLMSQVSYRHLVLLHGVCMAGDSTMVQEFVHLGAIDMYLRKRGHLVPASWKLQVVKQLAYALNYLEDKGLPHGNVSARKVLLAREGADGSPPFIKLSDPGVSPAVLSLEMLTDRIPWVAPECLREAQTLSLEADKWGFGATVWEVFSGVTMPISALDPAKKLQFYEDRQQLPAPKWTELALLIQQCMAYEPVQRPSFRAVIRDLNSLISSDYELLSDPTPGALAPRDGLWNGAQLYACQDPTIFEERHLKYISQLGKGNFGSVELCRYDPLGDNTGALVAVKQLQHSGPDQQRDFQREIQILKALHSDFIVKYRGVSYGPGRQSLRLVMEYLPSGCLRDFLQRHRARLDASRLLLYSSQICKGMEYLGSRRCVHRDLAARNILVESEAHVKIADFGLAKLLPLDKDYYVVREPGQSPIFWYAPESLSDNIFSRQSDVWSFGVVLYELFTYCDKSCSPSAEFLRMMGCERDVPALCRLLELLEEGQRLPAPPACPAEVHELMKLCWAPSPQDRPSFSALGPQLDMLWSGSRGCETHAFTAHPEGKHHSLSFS
Protocol: Reactions are carried out in a kinase buffer containing 100 mM HEPES (pH 7.4), 1 mM DTT, 10 mM MgCl2, 25 mM NaCl, and 0.01% BSA. Substrate concentrations in the assay are 5 μM ATP (200 uCi/μmole ATP) and 1 μM poly(Glu)4Tyr. Reactions are carried out at 25° C. and 1 nM JAK3. To each well of a 96 well polycarbonate plate is added 1.5 μl of a candidate JAK3 inhibitor along with 50 μl of kinase buffer containing 2 μM poly(Glu)4Tyr and 10 μM ATP. This is then mixed and 50 μl of kinase buffer containing 2 nM JAK3 enzyme is added to start the reaction. After 20 minutes at room temperature (25 C), the reaction is stopped with 50 μl of 20% trichloroacetic acid (TCA) that also contained 0.4 mM ATP. The entire contents of each well are then transferred to a 96 well glass fiber filter plate using a TomTek Cell Harvester. After washing, 60 μl of scintillation fluid is added and ^33P incorporation detected on a Perkin Elmer TopCount.

[3] = biological target: c-Met (Homo sapiens, UniProt P08581); assay: c-Met Inhibition Assay, coupled enzyme system; conditions: enzyme inhibition data (Ki), Table 11
Protocol: Compounds are screened for their ability to inhibit c-Met kinase activity using a standard coupled enzyme system (Fox et al., Protein Sci. 1998, 7, 2249). Reactions are carried out in a solution containing 100 mM HEPES (pH 7.5), 10 mM MgCl2, 25 mM NaCl, 300 μM NADH, 1 mM DTT, and 1.5% DMSO. Final substrate concentrations in the assay are 200 μM ATP (Sigma Chemicals, St Louis, Mo.) and 10 μM polyGluTyr (Sigma Chemical Company, St. Louis). Reactions are carried out at 30° C. and 80 nM c-Met. Final concentrations of the components of the coupled enzyme system are 2.5 mM phosphoenolpyruvate, 300 μM NADH, 30 μg/ml pyruvate kinase and 10 μg/ml lactate dehydrogenase.
An assay stock buffer solution is prepared containing all of the reagents listed above with the exception of ATP and a test compound of the present invention. The assay stock buffer solution (175 μl) is incubated in a 96 well plate with 5 μl of the test compound of the present invention at final concentrations spanning 0.006 μM to 12.5 μM at 30° C. for 10 minutes. Typically, a 12-point titration is conducted by preparing serial dilutions (from 10 mM compound stocks) with DMSO of the test compounds of the present invention in daughter plates. The reaction is initiated by the addition of 20 μl of ATP (final concentration 200 μM). Rates of reaction are obtained using a Molecular Devices Spectramax plate reader (Sunnyvale, Calif.) over 10 minutes at 30° C. The Ki values are determined from the rate data as a function of inhibitor concentration.

Chain of c-Met (P08581 25-1390): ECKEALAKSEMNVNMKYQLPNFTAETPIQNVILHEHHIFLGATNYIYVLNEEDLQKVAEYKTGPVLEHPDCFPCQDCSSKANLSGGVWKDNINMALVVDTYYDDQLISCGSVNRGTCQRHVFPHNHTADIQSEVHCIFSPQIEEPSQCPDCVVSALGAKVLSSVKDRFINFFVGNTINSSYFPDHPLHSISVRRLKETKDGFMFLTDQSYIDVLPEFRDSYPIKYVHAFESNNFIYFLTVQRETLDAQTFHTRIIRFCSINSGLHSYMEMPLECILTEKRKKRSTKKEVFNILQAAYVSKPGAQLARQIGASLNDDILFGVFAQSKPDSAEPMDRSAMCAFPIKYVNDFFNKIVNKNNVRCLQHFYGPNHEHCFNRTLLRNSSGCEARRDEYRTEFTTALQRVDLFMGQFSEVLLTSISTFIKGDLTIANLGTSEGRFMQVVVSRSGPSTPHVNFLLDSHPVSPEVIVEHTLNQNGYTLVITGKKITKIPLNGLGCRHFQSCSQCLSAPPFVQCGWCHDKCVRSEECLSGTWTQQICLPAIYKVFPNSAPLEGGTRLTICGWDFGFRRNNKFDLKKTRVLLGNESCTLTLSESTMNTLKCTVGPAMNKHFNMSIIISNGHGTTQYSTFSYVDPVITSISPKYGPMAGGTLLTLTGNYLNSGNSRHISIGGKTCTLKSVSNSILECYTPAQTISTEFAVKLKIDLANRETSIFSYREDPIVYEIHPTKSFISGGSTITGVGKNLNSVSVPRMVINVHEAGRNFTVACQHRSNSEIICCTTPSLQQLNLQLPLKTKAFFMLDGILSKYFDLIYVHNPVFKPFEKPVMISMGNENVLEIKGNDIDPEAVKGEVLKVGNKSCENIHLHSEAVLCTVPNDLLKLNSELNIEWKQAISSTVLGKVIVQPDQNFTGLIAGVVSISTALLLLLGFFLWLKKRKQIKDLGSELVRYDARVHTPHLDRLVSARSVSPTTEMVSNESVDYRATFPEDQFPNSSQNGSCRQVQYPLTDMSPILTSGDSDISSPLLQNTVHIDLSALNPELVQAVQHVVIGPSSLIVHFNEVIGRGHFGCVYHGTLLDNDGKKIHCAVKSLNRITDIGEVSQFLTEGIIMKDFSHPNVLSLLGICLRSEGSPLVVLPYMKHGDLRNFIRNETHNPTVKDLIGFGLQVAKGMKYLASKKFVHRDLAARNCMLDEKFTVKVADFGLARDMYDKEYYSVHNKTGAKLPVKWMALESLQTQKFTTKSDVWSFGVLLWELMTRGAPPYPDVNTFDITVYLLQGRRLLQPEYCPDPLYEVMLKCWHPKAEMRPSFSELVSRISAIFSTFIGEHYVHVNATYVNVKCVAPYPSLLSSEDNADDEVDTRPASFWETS

Structure (SMILES)	Ki [1] [µM]	Ki [2] [µM]	Ki [3] [µM]
CCOC(=O)c1c(N)nn2cc(-c3ccccn3)cnc12 [Compound V-25]	0.5 to 5	> 5	0.5 to 5
CCOC(=O)c1c(N)nn2cc(-c3cnccn3)cnc12 [Compound V-26]	0.5 to 5	> 5	0.5 to 5
Cc1ccc(-c2cnc3c(-c4ccccc4Br)c(N)nn3c2)cc1 [Compound V-31]	0.5 to 5	> 5	0.5 to 5
CN(C)CCN(Cc1ccccc1)C(=O)c1c(N)nn2cc(-c3ccncn3)cnc12 [Compound V-35]	0.5 to 5	> 5	0.5 to 5
CCN(Cc1ccncc1)C(=O)c1c(N)nn2cc(-c3ccncn3)cnc12 [Compound V-36]	0.5 to 5	> 5	0.5 to 5
N#CCCN(Cc1ccccc1)C(=O)c1c(N)nn2cc(-c3ccncn3)cnc12 [Compound V-38]	0.5 to 5	> 5	0.5 to 5
CCN(Cc1ccccc1)C(=O)c1c(N)nn2cc(-c3ccncn3)cnc12 [Compound V-42]	0.5 to 5	> 5	0.5 to 5
CN(C)c1ccc(CNC(=O)c2c(N)nn3cc(-c4ccncn4)cnc23)cc1 [Compound V-43]	0.5 to 5	> 5	0.5 to 5
Nc1nn2cc(-c3ccccn3)cnc2c1C(=O)NCc1ccc(Cl)c(Cl)c1 [Compound V-47]	0.5 to 5	> 5	0.5 to 5
CCOC(=O)c1c(N)nn2cc(CCCOC(C)=O)cnc12 [Compound V-48]	0.5 to 5	> 5	0.5 to 5
CC(C)(C)OCc1ccccc1-c1cnc2c(-c3ccccn3)c(N)nn2c1 [Compound V-49]	0.5 to 5	> 5	0.5 to 5
COc1ccc(-c2cnc3c(-c4ccccn4)c(N)nn3c2)cn1 [Compound V-50]	0.5 to 5	> 5	< 0.5
Nc1nn2cc(-c3cncnc3)cnc2c1-c1ccccn1 [Compound V-52]	0.5 to 5	> 5	0.5 to 5
Cc1n[nH]c(C)c1-c1cnc2c(-c3ccccn3)c(N)nn2c1 [Compound V-53]	0.5 to 5	> 5	< 0.5

Next, values leading:

Ki [1] [µM]	Ki [2] [µM]	Ki [3] [µM]	Structure (SMILES)
0.5 to 5	> 5	0.5 to 5	CCOC(=O)c1c(N)nn2cc(-c3ccncn3)cnc12 [Compound V-27]
0.5 to 5	> 5	0.5 to 5	Nc1nn2cc(-c3ccncn3)cnc2c1C(=O)O [Compound V-28]
0.5 to 5	> 5	0.5 to 5	Nc1nn2cc(-c3ccncn3)cnc2c1C(=O)NCc1ccc(F)cc1F [Compound V-32]
0.5 to 5	> 5	0.5 to 5	Nc1nn2cc(-c3ccncn3)cnc2c1C(=O)N1CCC[C@H]1CN1CCCC1 [Compound V-34]
0.5 to 5	> 5	0.5 to 5	Nc1nn2cc(-c3ccncn3)cnc2c1C(=O)N(CCO)Cc1ccccc1 [Compound V-37]
0.5 to 5	> 5	0.5 to 5	Nc1nn2cc(-c3ccncn3)cnc2c1C(=O)N1CCC[C@H]1CO [Compound V-39]
0.5 to 5	> 5	0.5 to 5	CN(CCC#N)C(=O)c1c(N)nn2cc(-c3ccncn3)cnc12 [Compound V-40]
0.5 to 5	> 5	0.5 to 5	CN(Cc1ccccc1)C(=O)c1c(N)nn2cc(-c3ccncn3)cnc12 [Compound V-41]
0.5 to 5	> 5	0.5 to 5	Nc1nn2cc(-c3ccncn3)cnc2c1C(=O)N1CCC(O)C1 (stereo not drawn) [Compound V-44]
0.5 to 5	> 5	0.5 to 5	Nc1nn2cc(-c3ccncn3)cnc2c1C(=O)N1CCCC1 [Compound V-45]
0.5 to 5	> 5	0.5 to 5	Nc1nn2cc(-c3ccncn3)cnc2c1C(=O)N[C@H](CO)c1ccccc1 [Compound V-46]
